Reference: patent publication US20020092037A1, “Use of membrane supports in plant tissue culture processes” (priority 2000, published 2002)

Experiments:
[1] = tested on: P. taeda embryogenic cell lines; assay: Embryo development and germination with abscisic acid applied in a liquid phase under polyester membranes; type: cell-based, Pinus taeda
[2] = tested on: P. taeda embryogenic cell lines; assay: as above; type: cell-based, Pinus taeda; remark: listed apart in the source
Experimental: Loblolly pine embryogenic cell cultures were initiated, proliferated, cryopreserved, retrieved, further proliferated on gelled maintenance medium, and placed into liquid suspension for plating on embryo development medium MSG1 as described in Examples 3-4 above. Three replicate plates of each line were prepared for each of the following treatments:
Treatment B: the cells were plated onto polyester support membranes laid onto 1 ml liquid embryo development medium MSG1 containing PEG but lacking gelling agent and activated charcoal, pipetted over gelled embryo development medium MSG1
Treatment C: the cells were plated onto polyester support membranes laid onto 1 ml liquid embryo development medium MSG1 containing PEG but lacking gelling agent and activated charcoal, pipetted over gelled embryo development medium MSG1 lacking abscisic acid.
Embryos were developed, harvested and germinated as described in Example 4 above. The results of the counts of high quality cotyledonary stage embryos, and the germination tests with these embryos, are shown in Table 20 below.
In another experiment, an attempt had been made to decrease the osmotic potential of the liquid phase in order to facilitate filter sterilization.

[3] = tested on: P. taeda embryogenic cell lines; assay: Embryo development over eradicants in liquid phase of biphasic development and maturation media, P. taeda; type: cell-based, Pinus taeda; settings: eradicant in liquid phase of development/maturation media, cefotaxime 500 mg/L, TIMENTIN 400 mg/L
Source text: Agrobacterium contamination has been reported as recurring sometimes after long periods of time. With many species, eradicants are incorporated in all culture media used after the initial infection, including selection media, proliferation media, media to induce the formation of organs or the development of somatic embryos, media to elongate or mature organs or embryos that are formed, and regeneration media. For pine embryogenic cells, incorporation of eradicants into the embryo development and maturation media has been difficult due to the high temperature of polymerization of the media resulting from the incorporation of a high level of polyethylene glycol. Therefore, loblolly and hybrid pine cell lines grown and maintained as described in Examples 3-4 above were placed on polyester support membranes over gelled MSG1 embryo development and maturation media as described in Example 4 above, except that some of the development and maturation media were overlaid with various eradication treatments under the polyester support membranes. The treatments consisted of either no liquid phase, or a liquid phase identical to the gelled phase (except that gelling agent and activated charcoal were omitted) and incorporating either cefotaxime or TIMENTIN® as an eradicant. Three replicate plates were generated from each of […] (two from each of two P. taeda families and one hybrid pine family) for each of the treatments, and assessed for the ability of the cultures to develop high quality harvestable stage 3 embryos. Dishes were incubated in a dark growth chamber at 23±2° C. The membrane supports were transferred to new petri dishes containing fresh medium every 3 weeks. At week 9, stage 3 embryos were counted and those deemed suitable for germination were harvested.

[4] = tested on: Hybrid pine embryogenic cell lines; assay: Growth of pine embryogenic cells on polyester supports over biphasic media with eradicants, hybrid pine; type: cell-based; settings: liquid phase under polyester support, cefotaxime 500 mg/L, TIMENTIN 400 mg/L
[5] = tested on: Hybrid pine embryogenic cell lines; assay: Embryo development over eradicants in liquid phase of biphasic development and maturation media, hybrid pine; type: cell-based; settings: eradicant in liquid phase of development/maturation media, cefotaxime 500 mg/L, TIMENTIN 400 mg/L
Source text: Agrobacterium contamination has been reported as recurring sometimes after long periods of time. With many species, eradicants are incorporated in all culture media used after the initial infection, including selection media, proliferation media, media to induce the formation of organs or the development of somatic embryos, media to elongate or mature organs or embryos that are formed, and regeneration media. For pine embryogenic cells, incorporation of eradicants into the embryo development and maturation media has been difficult due to the high temperature of polymerization of the media resulting from the incorporation of a high level of polyethylene glycol. […] Three replicate plates were generated from each of six embryogenic cell lines (two from each of two P. taeda families and one hybrid pine family) for each of the treatments, and assessed for the ability of the cultures to develop high quality harvestable stage 3 embryos. […] At week 9, stage 3 embryos were counted and those deemed suitable for germination were harvested.

[6] = tested on: P. taeda embryogenic cell lines; assay: Growth of pine embryogenic cells on polyester supports over biphasic media with eradicants, P. taeda; type: cell-based, Pinus taeda; settings: liquid phase under polyester support, cefotaxime 500 mg/L, TIMENTIN 400 mg/L
Source text: (§1) Loblolly pine cell lines were used which had been grown and maintained as described in Examples 3-4 above, and purposely infected with bacteria as described in Example 6 above. Support membranes bearing plant tissue were then placed on gelled DCR2 maintenance media with various decontamination treatments. These treatments consisted of antibiotics (cefotaxime, carbenicillin, AUGMENTIN® or TIMENTIN®) as eradicants incorporated into the gelled DCR2 maintenance or selection media, the antibiotics incorporated into liquid DCR3 pipetted in a thin film over gelled DCR2 maintenance media lacking antibiotics, or the antibiotics incorporated into liquid DCR3 which was saturated into a filter paper laid on gelled DCR2 maintenance media lacking antibiotics. Support membranes bearing control cells were placed either on gelled DCR2 maintenance media, over liquid DCR3 pipetted in a thin film over gelled DCR2 maintenance media lacking antibiotics, or over a filter paper saturated with liquid DCR3 and laid on gelled DCR2 maintenance media lacking antibiotics. Decontamination and maintenance were continued for a period of approximately 12 weeks with transfer of the polyester support membranes, bearing the cells, every 14-21 days.

[7] = tested on: Hybrid pine embryogenic cell lines; assay: Embryogenicity after biphasic maintenance treatments, hybrid pine; type: cell-based; settings: for % germination: embryos from cultures maintained over eradicant liquid phase; for Average Number Of Embryos Harvested Per Plate: eradicant in liquid phase during maintenance, cefotaxime 500 mg/L, TIMENTIN 400 mg/L
[8] = tested on: P. taeda embryogenic cell lines; assay: Embryogenicity after biphasic maintenance treatments, P. taeda; type: cell-based, Pinus taeda; settings: for % germination: embryos from cultures maintained over eradicant liquid phase; for Average Number Of Embryos Harvested Per Plate: eradicant in liquid phase during maintenance, cefotaxime 500 mg/L, TIMENTIN 400 mg/L
Source text: as §1

[9] = tested on: unknown fungus on Eucalyptus camaldulensis leaf explants; assay: Decontamination of Eucalyptus leaf explants of fungus; type: cell-based
Source text: Eucalyptus camaldulensis leaves were explanted from seedlings for the production of callus, and then discovered to be contaminated with an unknown fungus. Contaminated explants were shaken together to obtain the same degree of contamination for all explants to be used in this decontamination example. Contamination of each explant with the fungus was verified by streaking the explant on a potato dextrose agar plate, and observing independent growth of the fungus on the potato dextrose agar.
Approximately half the Eucalyptus leaf explants were then treated to decontamination by washing and collection of the tissue using polyester support membranes after each wash, similar to the improved decontamination method described in Example 6, split among five treatments:
Following the washing of half the material according to the protocol described in […] in the treatments described in the paragraph above, using three washes of 30 minutes each, the washed and non-washed material was then divided over the same support membrane treatments A-F as described in Example 8, except that nested within each support membrane treatment was the prior washing or lack of washing treatment, and within each of these latter treatments, the five fungicidal treatments listed above were further nested, wherein the antifungal agents benomyl, miconazole, nystatin or thiophanate were added to the medium subtending the tissue and supports in place of cefotaxime. Finally, non-contaminated explants were submitted to all treatments to determine the effects of the treatments on plant regeneration in the absence of fungus. Five explants were plated for each treatment combination.
The explants were then cultured in a growth chamber set at 27±3° C. and under low light, and were transferred biweekly using the same support membranes but supplying fresh sterile liquid and solid medium.

[10] = P1, liquid phase with same abscisic acid content as gelled phase
[11] = P1, gelled phase lacking abscisic acid and liquid phase containing abscisic acid
[12] = P2, gelled phase lacking abscisic acid and liquid phase containing abscisic acid
[13] = P2, liquid phase with same abscisic acid content as gelled phase

## CC1=CC(=O)CC(C)(C)[C@@]1(O)/C=C/C(C)=C\C(=O)O [Abscisic Acid, Abscisic acid]
[1]; L5, Liquid Phase containing ABA and PEG
  Average Number Of High Quality Cotyledonary Embryos Per Plate: 26.3 ± 45.6
[1]; L5, Liquid Phase containing ABA but no PEG
  Average Number Of High Quality Cotyledonary Embryos Per Plate: 201.0 ± 44.5
[1]; L9, Liquid Phase containing ABA and PEG
  Average Number Of High Quality Cotyledonary Embryos Per Plate: 64.0 ± 23.6
[1]; L9, Liquid Phase containing ABA but no PEG
  Average Number Of High Quality Cotyledonary Embryos Per Plate: 97.0 ± 20.7
[1]; L42, Liquid Phase containing ABA and PEG
  Average Number Of High Quality Cotyledonary Embryos Per Plate: 0
[1]; L42, Liquid Phase containing ABA but no PEG
  Average Number Of High Quality Cotyledonary Embryos Per Plate: 0
[1]; [10]
  Percentage Of Resulting Embryos That Germinated: 55.0%
[2]; [11]
  Average Number Of High Quality Cotyledonary Embryos Per Plate: 30.3 ± 7.1
  Percentage Of Resulting Embryos That Germinated: 52.5%
[2]; [10]
  Average Number Of High Quality Cotyledonary Embryos Per Plate: 44.3 ± 21.1
[2]; [12]
  Average Number Of High Quality Cotyledonary Embryos Per Plate: 48.7 ± 5.0
  Percentage Of Resulting Embryos That Germinated: 57.5%
[2]; [13]
  Average Number Of High Quality Cotyledonary Embryos Per Plate: 44.3 ± 4.9
  Percentage Of Resulting Embryos That Germinated: 67.5%
[2]; abscisic acid in liquid phase only, overall use of 5% of the amount
  decrease in embryos per plate: 30-60%

## CO/N=C(\C(=O)N[C@@H]1C(=O)N2C(C(=O)O)=C(COC(C)=O)CS[C@H]12)c1csc(N)n1 [cefotaxime]
[3]; P1
  Number of Harvestable Cotyledonary Stage Embryos Developed: 208.0 ± 94.8
[3]; P2
  Number of Harvestable Cotyledonary Stage Embryos Developed: 269.0 ± 23.3
[3]; P3
  Number of Harvestable Cotyledonary Stage Embryos Developed: 25.0 ± 17.7
[3]; P4
  Number of Harvestable Cotyledonary Stage Embryos Developed: 18.0 ± 1.0
[4]; H1
  Average growth over a one-month period (two transfers): 4.53 + 0.28
[4]; H2
  Average growth over a one-month period (two transfers): 8.76 + 0.63
[5]; H1
  Number of Harvestable Cotyledonary Stage Embryos Developed: 200.0 ± 51.2
[5]; H2
  Number of Harvestable Cotyledonary Stage Embryos Developed: 210.0 ± 67.1
[6]; P1
  Average growth over a one-month period (two transfers): 7.20 + 0.28
[6]; P2
  Average growth over a one-month period (two transfers): 1.93 + 0.24
[6]; P3
  Average growth over a one-month period (two transfers): 6.75 + 0.25
[6]; P4
  Average growth over a one-month period (two transfers): 8.97 + 0.19
[7]; H1
  % germination: (96%)
  Average Number Of Embryos Harvested Per Plate: 152.0 ± 40.8
[7]; H2
  % germination: (88%)
  Average Number Of Embryos Harvested Per Plate: 77.0 ± 10.4
[8]; P1
  % germination: (10%)
  Average Number Of Embryos Harvested Per Plate: 87.0 ± 37.5
[8]; P2
  % germination: (66%)
  Average Number Of Embryos Harvested Per Plate: 81.7 ± 44.5
[8]; P3
  % germination: (21%)
  Average Number Of Embryos Harvested Per Plate: 14.3 ± 4.2
[8]; P4
  % germination: (36%)
  Average Number Of Embryos Harvested Per Plate: 34.0 ± 16.1

## Clc1ccc(COC(Cn2ccnc2)c2ccc(Cl)cc2Cl)c(Cl)c1 (stereo not shown) [miconazole, Miconazole]
[9]; contaminated Eucalyptus explants
  contaminated explants in which decontamination did not succeed: 7.5%
[9]; contaminated Eucalyptus explants, 50 mg/L in wash medium
  decontamination rate: 92.5%

## CCCCNC(=O)n1c(NC(=O)OC)nc2ccccc21 [benomyl, Benomyl]
[9]; also from successfully decontaminated plant tissue
  phenolic release into the medium from plant tissue: elicited considerable phenolic release into the medium
[9]; in the washing (100 mg/L) and incorporated into the medium below the polyester supports
  decontamination: largely ineffective in decontamination
